Among the data in patent publication US11274092B2, “Potassium channel inhibitors” (ACESION PHARMA ApS, priority 2016, dated 2022) are IC50 values, retold here.

For this assay, the target named is T1, human SK3 channel (hKCa2.3) (Homo sapiens, UniProt Q9UGI6).
T1 construct: expressed in transfected cells
The assay is described as follows: Automated whole cell patch-clamp (QPatch 16 HT), inhibition of SK3 current. The note with it: HEK-293 cells stably expressing hKCa2.3; symmetrical K+ solutions, free calcium 400 nM; effects normalized to N-methyl bicuculline. Type of assay: cell-based. As for the experimental part: Automated whole cell patch-clamp recordings were performed using a QPatch 16 HT system and single-hole Qplates (Biolin Scientific, Sophion, Denmark) on HEK-293 cells stably expressing the human SK3 channel (hKCa2.3). Cells were cultured and prepared for experiments using normal cell culturing procedures. A total of 4-5 million cells were used per experiment. The Qpatch automatically generates giga sealing, whole-cell formation, compound application and recording of current. hKCa2.3 currents were recorded in symmetrical K^+ solutions, with an intracellular solution consisting of in mM: KCl 108; KOH/EGTA (ethylene glycol-bis(2-aminoethylether)-N,N,N′,N′-tetraacetic acid) 31.25/10; CaCl2) 8.1; MgCl2 1.2; HEPES (2-[4-(2-hydroxyethyl)piperazin-1-yl]ethanesulfonic acid) 10; KOH 15, pH adjusted to pH=7.2 with HCl. The free calcium concentration was calculated to 400 nM. The extracellular solution consisted of in mM: KCl 150; CaCl2) 0.1; MgCl2 3; HEPES 10; Glucose 10, pH=7.4 with KOH. The cells were held at 0 mV and hKCa2.3 currents were elicited by a linear voltage ramp from […] (200 ms in duration) applied every 5th second. The compound application protocol consisted of 12 recording periods lasting from 50-200 s: 1) Baseline recordings in extracellular solution; 2) Application of the positive control N-methyl bicuculline (100 μM), which is characterized by full efficacy, fast on- and off-rate; 3-4) Wash-out; 5-9) Increasing concentrations of test compound to establish an IC50 value; 10-11) Wash-out; 12) positive control with compound NS8593 (N-[(1R)-1,2,3,4-tetrahydro-1-naphthalenyl]-1H-benzimidazol-2-amine) (1 μM). Data were sampled at 10 kHz, 4th order Bessel filter, cut-off frequency 3 kHz. Currents were compensated for run-down. Potency was quantified as the concentration needed to inhibit half of the SK channel activity and reported as an IC50 value. All effects of compounds of the present invention as tested were normalized to the observed inhibitory effect of N-methyl bicuculline.
`NCCNC(=O)C(Nc1nc2ccccc2[nH]1)c1cccc(C(F)(F)F)c1` (stereo not shown) [Example 24, N-(2-aminoethyl)-2-[(1H-1,3-benzodiazol-2-yl)amino]-2-[3-(trifluoromethyl)phenyl]acetamide]: the half-maximal inhibitory concentration (IC50) fell in the range of 10 to 100 µM.

With `CN1CCN(C(=O)C(Nc2nc3ccccc3[nH]2)c2cccc(C(F)(F)F)c2)CC1` (stereo not shown) [Example 27, 2-[(1H-1,3-benzodiazol-2-yl)amino]-1-(4-methylpiperazin-1-yl)-2-[3-(trifluoromethyl)phenyl]ethan-1-one], the IC50 was under 10 µM.

In the case of `O=C(CC(Nc1nc2ccccc2[nH]1)c1cccc(C(F)(F)F)c1)NCCNS(=O)(=O)Cc1ccccc1` (stereo not shown) [Example 12, 3-[(1H-1,3-benzodiazol-2-yl)amino]-N-[2-(phenylmethanesulfonamido)ethyl]-3-[3-(trifluoromethyl)phenyl]propanamide], the half-maximal inhibitory concentration (IC50) is 10 to 100 µM.

For the compound `CCS(=O)(=O)NCCNC(=O)CC(Nc1nc2ccccc2[nH]1)c1cccc(C(F)(F)F)c1` (stereo not shown) [Example 3, 3-[(1H-1,3-benzodiazol-2-yl)amino]-N-(2-ethanesulfonamidoethyl)-3-[3-(trifluoromethyl)phenyl]propanamide], the half-maximal inhibitory concentration (IC50) lay within 10 to 100 µM.

Consider `O=C(C(Nc1nc2ccccc2[nH]1)c1cccc(C(F)(F)F)c1)N1CC2(COC2)C1` (stereo not shown) [Example 36, 2-[(1H-1,3-benzodiazol-2-yl)amino]-1-{2-oxa-6-azaspiro[3.3]heptan-6-yl}-2-[3-(trifluoromethyl)phenyl]ethan-1-one], for which the IC50 was in the range of 10 to 100 µM.

For the compound `CCN(CCO)C(=O)CC(Nc1nc2ccccc2[nH]1)c1cccc(C(F)(F)F)c1` (single isomer, unassigned; (-)) [Example 41a, (−)3-[(1H-1,3-benzodiazol-2-yl)amino]-N-ethyl-N-(2-hydroxyethyl)-3-[3-(trifluoromethyl)phenyl]propanamide], the half-inhibitory concentration (IC50) was under 10 µM.

On to `COC(=O)CN(C)C(=O)CC(Nc1nc2ccccc2[nH]1)c1cccc(C(F)(F)F)c1` (stereo not shown) [Example 57, Methyl 2-{3-[(1H-1,3-benzodiazol-2-yl)amino]-N-methyl-3-[3-(trifluoromethyl)phenyl]propanamido}acetate], for which the IC50 is under 10 µM.

Consider `N#CCNC(=O)CC(Nc1nc2ccccc2[nH]1)c1cccc(OC(F)(F)F)c1` (stereo not shown) [Example 85, 3-[(1H-1,3-benzodiazol-2-yl)amino]-N-(cyanomethyl)-3-[3-(trifluoromethoxy)phenyl]propanamide], for which the IC50 was under 10 µM.

As to `O=C(CC(Nc1nc2ccccc2[nH]1)c1cccc(C(F)(F)F)c1)N1CC(O)C1` (stereo not shown) [Example 6, 3-[(1H-1,3-benzodiazol-2-yl)amino]-1-(3-hydroxyazetidin-1-yl)-3-[3-(trifluoromethyl)phenyl]propan-1-one], the half-maximal inhibitory concentration (IC50) was under 10 µM.

Turning to `O=C(C(Nc1nc2ccccc2[nH]1)c1cccc(C(F)(F)F)c1)N1CCOCC1` (stereo not shown) [Example 32, 2-[(1H-1,3-benzodiazol-2-yl)amino]-1-(morpholin-4-yl)-2-[3-(trifluoromethyl)phenyl]ethan-1-one], the IC50 is under 10 µM.

As to `COC(=O)N1CCN(C(=O)C(Nc2nc3ccccc3[nH]2)c2cccc(C(F)(F)F)c2)CC1` (stereo not shown) [Example 61, Methyl 4-{2-[(1H-1,3-benzodiazol-2-yl)amino]-2-[3-(trifluoromethyl)phenyl]acetyl}piperazine-1-carboxylate], the IC50 was under 10 µM.

Regarding `O=C(C(Nc1nc2ccccc2[nH]1)c1cccc(C(F)(F)F)c1)N1CCCC1` (stereo not shown) [Example 29, 2-[(1H-1,3-benzodiazol-2-yl)amino]-1-(pyrrolidin-1-yl)-2-[3-(trifluoromethyl)phenyl]ethan-1-one], the IC50 was under 10 µM.

With `Cn1ccnc1CNC(=O)CC(Nc1nc2ccccc2[nH]1)c1cccc(C(F)(F)F)c1` (stereo not shown) [Example 19, 3-[(1H-1,3-benzodiazol-2-yl)amino]-N-[(1-methyl-1H-imidazol-2-yl)methyl]-3-[3-(trifluoromethyl)phenyl]propanamide], the concentration for half-maximal inhibition (IC50) lay in the range of 10 to 100 µM.

Regarding `O=C(CC(Nc1nc2ccccc2[nH]1)c1cccc(C(F)(F)F)c1)NCCCO` (stereo not shown) [Example 16, 3-[(1H-1,3-benzodiazol-2-yl)amino]-N-(3-hydroxypropyl)-3-[3-(trifluoromethyl)phenyl]propanamide], the concentration for half-maximal inhibition (IC50) is 10 to 100 µM.

In the case of `CN1CCN(C(=O)CC(Nc2nc3ccccc3[nH]2)c2cccc(C(F)(F)F)c2)CC1=O` (stereo not shown) [Example 11, 4-{3-[(1H-1,3-benzodiazol-2-yl)amino]-3-[3-(trifluoromethyl)phenyl]propanoyl}-1-methylpiperazin-2-one], the 50% inhibitory concentration (IC50) lay in the range of 10 to 100 µM.

For `O=C(CC(Nc1nc2ccccc2[nH]1)c1cccc(SC(F)(F)F)c1)NCCOC(F)(F)F` (stereo not shown) [Example 81, 3-[(1H-1,3-benzodiazol-2-yl)amino]-N-[2-(trifluoromethoxy)ethyl]-3-{3-[(trifluoromethyl)sulfanyl]phenyl}propanamide], the 50% inhibitory concentration (IC50) was under 10 µM.

Turning to `CCOC(=O)CN(CC)C(=O)CC(Nc1nc2ccccc2[nH]1)c1cccc(C(F)(F)F)c1` (stereo not shown) [Example 48, Ethyl 2-{3-[(1H-1,3-benzodiazol-2-yl)amino]-N-ethyl-3-[3-(trifluoromethyl)phenyl]propanamido}acetate], the half-inhibitory concentration (IC50) was under 10 µM.

As to `O=C(C(Nc1nc2ccccc2[nH]1)c1cccc(C(F)(F)F)c1)N1CCNCC1` (stereo not shown) [Example 26, 2-[(1H-1,3-benzodiazol-2-yl)amino]-1-(piperazin-1-yl)-2-[3-(trifluoromethyl)phenyl]ethan-1-one], the IC50 fell in the range of 10 to 100 µM.

Take `Cc1cccc(C(C)NC(=O)CC(Nc2nc3ccccc3[nH]2)c2cccc(C(F)(F)F)c2)n1` (stereo not shown) [Example 76, 3-[(1H-1,3-benzodiazol-2-yl)amino]-N-[1-(6-methylpyridin-2-yl)ethyl]-3-[3-(trifluoromethyl)phenyl]propanamide]: the IC50 is under 10 µM.

On to `CC(C)S(=O)(=O)N1CCN(C(=O)C(Nc2nc3ccccc3[nH]2)c2cccc(C(F)(F)F)c2)CC1` (stereo not shown) [Example 33, 2-[(1H-1,3-benzodiazol-2-yl)amino]-1-[4-(propane-2-sulfonyl)piperazin-1-yl]-2-[3-(trifluoromethyl)phenyl]ethan-1-one], for which the half-maximal inhibitory concentration (IC50) fell in the range of 10 to 100 µM.

As to `CCOC(=O)NCc1ccc2[nH]c(NC(CC(=O)N(CC)CCO)c3cccc(C(F)(F)F)c3)nc2c1` (stereo not shown) [Example 66, Ethyl N-{[2-({2-[ethyl(2-hydroxyethyl)carbamoyl]-1-[3-(trifluoromethyl)phenyl]ethyl}amino)-1H-1,3-benzodiazol-5-yl]methyl}carbamate], the 50% inhibitory concentration (IC50) lay within 10 to 100 µM.

In the case of `CCN(CCO)C(=O)CC(Nc1nc2ccccc2[nH]1)c1ccc(Cl)c(C)c1` (single isomer, unassigned; (+)) [Example 40b, (+)3-[(1H-1,3-benzodiazol-2-yl)amino]-3-(4-chloro-3-methylphenyl)-N-ethyl-N-(2-hydroxyethyl)propanamide], the IC50 is 10 to 100 µM.

`CCOC(=O)CNC(=O)CC(Nc1nc2ccccc2[nH]1)c1cccc(C(F)(F)F)c1` (stereo not shown) [Example 23, Ethyl 2-{3-[(1H-1,3-benzodiazol-2-yl)amino]-3-[3-(trifluoromethyl)phenyl]propanamido}acetate]: the 50% inhibitory concentration (IC50) was under 10 µM.

With `COCC(=O)NCCNC(=O)CC(Nc1nc2ccccc2[nH]1)c1cccc(C(F)(F)F)c1` (stereo not shown) [Example 62, 3-[(1H-1,3-benzodiazol-2-yl)amino]-N-[2-(2-methoxyacetamido)ethyl]-3-[3-(trifluoromethyl)phenyl]propanamide], the IC50 fell in the range of 10 to 100 µM.

As to `COCCNC(=O)CC(Nc1nc2c(C)c(F)ccc2[nH]1)c1cccc(C(F)(F)F)c1` (stereo not shown) [Example 96, 3-[(5-fluoro-4-methyl-1H-1,3-benzodiazol-2-yl)amino]-N-(2-methoxyethyl)-3-[3-(trifluoromethyl)phenyl]propanamide], the 50% inhibitory concentration (IC50) was in the range of 10 to 100 µM.

Turning to `Cc1cc(CNC(=O)CC(Nc2nc3ccccc3[nH]2)c2cccc(C(F)(F)F)c2)ccn1` (stereo not shown) [Example 79, 3-[(1H-1,3-benzodiazol-2-yl)amino]-N-[(2-methylpyridin-4-yl)methyl]-3-[3-(trifluoromethyl)phenyl]propanamide], the IC50 is under 10 µM.

With `O=C(C(Nc1nc2ccccc2[nH]1)c1cccc(C(F)(F)F)c1)N1CCC1` (stereo not shown) [Example 34, 1-(azetidin-1-yl)-2-[(1H-1,3-benzodiazol-2-yl)amino]-2-[3-(trifluoromethyl)phenyl]ethan-1-one], the half-inhibitory concentration (IC50) was under 10 µM.

Consider `O=C(CC(Nc1nc2ccccc2[nH]1)c1cccc(C(F)(F)F)c1)NCc1nccs1` (stereo not shown) [Example 75, 3-[(1H-1,3-benzodiazol-2-yl)amino]-N-(1,3-thiazol-2-ylmethyl)-3-[3-(trifluoromethyl)phenyl]propanamide], for which the IC50 is under 10 µM.
